We go through five compounds from US11439641B2, “Pyrimidine JAK inhibitors for the treatment of skin diseases” (THERAVANCE BIOPHARMA R&D IP, LLC, priority 2019, dated 2022).

SMILES strings stand for the structures.

A short description of data set [1]: Solubility Assay in Organic Excipients. The following applies: maximum upper limit 20,000 μM; for Solubility in MCT (mg/mL): medium chain triglycerides (MCT).
Data set [2] has as its system IL-2 stimulated pSTAT5 in Tall-1 T cells. Kind of data set: Inhibition of IL-2 Stimulated pSTAT5 in Tall-1 T Cells. The note with it: Tall-1 human T cell line, IL-2 300 ng/mL, AlphaLisa. Format: cell-based. The method in brief: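 Cells preincubated with compound 1 hour at 37° C, then stimulated with IL-2 (final 300 ng/mL) for 30 minutes. After lysis, pSTAT5 (Tyr694/699) read by AlphaLISA luminescence. IC50 from inhibition curves, reported as pIC50 (mean±SD).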
(Bead proximity is the source of the signal in Alpha formats.)

For another data set, the system named is Caco-2 cell monolayer. Put plainly: Caco-2 Permeation Assay. Type of data set: in vitro ADME. The note with it: Papp, 5 μM compound; for Cacoverap Kp 10^−6 cm/sec: A→B in the presence of 25 μM verapamil (P-gp inhibitor); for Caco Kp 10^−6 cm/sec: apical to basal (A→B). The method in brief:
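Compound at 5 μM, in duplicate, crosses Caco-2 monolayers apical to basal over 120 min at 37 °C. This is run with and without 25 μM verapamil to test for P-gp efflux. Samples are quantified by LC-MS/MS, and Papp in cm/sec is calculated as dQ/(dt × area × concentration).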
(Passage across Caco-2 layers is used to estimate intestinal permeability.)

The nature of another data set: Aqueous Solubility Assay. The note with it: PBS buffer pH 7.4; maximum upper limit 1,000 μM.
In another data set the target is JAK1 (Homo sapiens (Human), UniProt P23458). Kind of data set: Biochemical JAK and Tyk2 Kinase Assays (LanthaScreen), JAK1. The note with it: 25 μM ATP (Km), pIC50 converted to pKi by Cheng-Prusoff. On the technique in general: TR-FRET usually uses a lanthanide donor and a delayed reading to cut background.
Chain of JAK1 (P23458 whole entry): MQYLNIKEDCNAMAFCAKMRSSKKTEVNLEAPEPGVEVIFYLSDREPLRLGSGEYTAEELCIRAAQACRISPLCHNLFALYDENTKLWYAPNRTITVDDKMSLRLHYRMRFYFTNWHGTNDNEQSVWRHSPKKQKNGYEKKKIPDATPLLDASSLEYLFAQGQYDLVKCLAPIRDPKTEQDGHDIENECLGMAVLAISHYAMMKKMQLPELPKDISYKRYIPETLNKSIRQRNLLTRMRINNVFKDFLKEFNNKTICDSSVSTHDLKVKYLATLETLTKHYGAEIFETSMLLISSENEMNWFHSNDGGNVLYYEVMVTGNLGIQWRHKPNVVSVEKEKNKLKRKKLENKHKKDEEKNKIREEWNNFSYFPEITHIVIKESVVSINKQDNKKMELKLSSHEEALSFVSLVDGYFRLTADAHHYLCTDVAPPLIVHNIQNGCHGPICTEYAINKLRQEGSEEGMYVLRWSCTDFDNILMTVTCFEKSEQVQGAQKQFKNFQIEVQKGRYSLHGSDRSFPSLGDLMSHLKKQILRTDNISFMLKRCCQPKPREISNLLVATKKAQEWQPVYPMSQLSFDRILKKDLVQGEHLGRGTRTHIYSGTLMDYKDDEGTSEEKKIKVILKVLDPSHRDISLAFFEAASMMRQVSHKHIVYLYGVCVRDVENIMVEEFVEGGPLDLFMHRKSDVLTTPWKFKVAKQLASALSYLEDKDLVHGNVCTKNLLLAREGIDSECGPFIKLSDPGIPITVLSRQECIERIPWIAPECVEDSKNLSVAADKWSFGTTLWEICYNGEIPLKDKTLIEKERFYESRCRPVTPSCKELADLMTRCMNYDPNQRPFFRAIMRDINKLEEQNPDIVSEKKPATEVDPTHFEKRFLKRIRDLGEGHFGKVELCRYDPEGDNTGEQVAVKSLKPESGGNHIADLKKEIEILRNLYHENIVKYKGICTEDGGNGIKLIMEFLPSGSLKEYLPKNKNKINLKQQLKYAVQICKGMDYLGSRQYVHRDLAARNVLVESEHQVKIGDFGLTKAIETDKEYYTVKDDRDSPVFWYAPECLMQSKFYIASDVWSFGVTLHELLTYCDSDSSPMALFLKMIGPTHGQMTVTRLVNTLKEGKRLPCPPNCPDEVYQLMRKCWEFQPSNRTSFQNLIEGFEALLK

Method for Aqueous Solubility Assay: Assay 5: Aqueous Solubility Assay
The purpose of this assay was to quantify the solubility of test compounds in pH 4 and pH 7.4 PBS buffers. The assay required 40 μL of 10 mM DMSO test compound solution per desired buffer in addition to 20 μL required to make a test standard. For example, to test a compound in both buffers, 100 μL (2*40 μL+20 μL) of 10 mM DMSO compound stock solution was required.
The standard was created by diluting 20 μL of 10 mM DMSO compound stock solution into 180 μL of methanol and was shaken for five minutes to ensure solution uniformity. […] This 1,000 μM solution was run on an Agilent 1260 LC-MS system by injecting 2 μL in order to obtain the peak area. For the test solutions, 40 μL of 10 mM DMSO compound stock solution, per PBS buffer condition, were dried down into a powder overnight. Once in powder form, 400 μL of the desired PBS buffer was added to the powder and allowed to shake vigorously for four hours. The maximum theoretical concentration for this sample solution was 1,000 μM. After four hours of shaking, the samples were centrifuged for 10 minutes at 3,000 RPM before injecting 2 μL on the same Agilent 1260 LC-MS system to obtain the peak area.
In Table 6 below, A represents a value above 500, B represents a value between 250 and 500, C represents a value between 50 and 250, D represents a value between 10 and 50, and E represents a value below 10.

In the case of `CCS(=O)(=O)N1[C@@H]2CCC[C@H]1C[C@H](N(C)c1nc(Nc3cc(C)[nH]n3)cc(C3CCCO3)n1)C2` (stereo partly drawn) [Compound 8, N^2-((1R,3s,5S)-9-(ethylsulfonyl)-9-azabicyclo[3.3.1]nonan-3-yl)-N2-methyl-N4-(5-methyl-1H-pyrazol-3-yl)-6-(tetrahydrofuran-2-yl)pyrimidine-2,4-diamine], in data set [1], the “Solubility in PEG400 (mg/mL)” value is “A (A represents a value above 10)”; the “Solubility in Diisopropyl adipate (mg/mL)” value was “B (B represents a value between 5 and 10)”; the “Solubility in MCT (mg/mL)” value was “C (C represents a value below 5)”; the “Solubility in Propylene glycol (mg/mL)” value was “A (A represents a value above 10)”. In addition, in data set [2], the “Tall-1 IL2 pSTAT5 (pIC50)” value is recorded as “A (A represents a pIC50 value ≥8.0)”. Further, in the data set with Caco-2 cell monolayer, the “Cacoverap Kp 10^−6 cm/sec” value is reported as “A (A represents a value above 35×10^−6 cm/sec)” and the “Caco Kp 10^−6 cm/sec” value was “A (A represents a value above 30×10^−6 cm/sec)”. Also, in “Aqueous Solubility Assay”, the “Solubility at PH 7.4 (μmol)” value was “C (C represents a value between 50 and 250)”. Further, the “JAK 1 (pKi)” value on JAK1 is reported as “A (A represents a pKi value ≥10 (Ki≤0.1 nM))”.

For `CCS(=O)(=O)N1[C@@H]2CCC[C@H]1C[C@H](N(C)c1nc(COC3COC3)c(F)c(Nc3cc(C)[nH]n3)n1)C2` [Compound 41, N2-((1R,3s,5S)-9-(ethylsulfonyl)-9-azabicyclo[3.3.1]nonan-3-yl)-5-fluoro-N2-methyl-N4-(5-methyl-1H-pyrazol-3-yl)-6-((oxetan-3-yloxy)methyl)pyrimidine-2,4-diamine], in data set [1], the “Solubility in PEG400 (mg/mL)” value was “B (B represents a value between 5 and 10)”; the “Solubility in Diisopropyl adipate (mg/mL)” value is given as “A (A represents a value above 10)”; the “Solubility in MCT (mg/mL)” value is reported as “C (C represents a value below 5)”; the “Solubility in Propylene glycol (mg/mL)” value is recorded as “A (A represents a value above 10)”. Also, the “Tall-1 IL2 pSTAT5 (pIC50)” value in data set [2] was “A (A represents a pIC50 value ≥8.0)”. Further, in the data set on Caco-2 cell monolayer, the “Cacoverap Kp 10^−6 cm/sec” value is listed as “A (A represents a value above 35×10^−6 cm/sec)” and the “Caco Kp 10^−6 cm/sec” value is “A (A represents a value above 30×10^−6 cm/sec)”. In addition, in “Aqueous Solubility Assay”, the “Solubility at PH 7.4 (μmol)” value was “D (D represents a value between 10 and 50)”. Further, on JAK1, the “JAK 1 (pKi)” value is listed as “A (A represents a pKi value ≥10 (Ki≤0.1 nM))”.

As to `CCS(=O)(=O)N1[C@@H]2CCC[C@H]1C[C@H](N(C)c1nc(CO[C@H]3CCOC3)c(F)c(Nc3cc(C)[nH]n3)n1)C2` [Compound 42, N2-((1R,3s,5S)-9-(ethylsulfonyl)-9-azabicyclo[3.3.1]nonan-3-yl)-5-fluoro-N2-methyl-N4-(5-methyl-1H-pyrazol-3-yl)-6-((((S)-tetrahydrofuran-3-yl)oxy)methyl)pyrimidine-2,4-diamine], in data set [1], the “Solubility in PEG400 (mg/mL)” value was “A (A represents a value above 10)”, the “Solubility in Diisopropyl adipate (mg/mL)” value is “A (A represents a value above 10)”, the “Solubility in MCT (mg/mL)” value is on record as “C (C represents a value below 5)” and the “Solubility in Propylene glycol (mg/mL)” value is recorded as “A (A represents a value above 10)”. In data set [2], the “Tall-1 IL2 pSTAT5 (pIC50)” value is “A (A represents a pIC50 value ≥8.0)”. Further, in the data set with Caco-2 cell monolayer, the “Caco Kp 10^−6 cm/sec” value is given as “A (A represents a value above 30×10^−6 cm/sec)”. In the data set “Aqueous Solubility Assay”, the “Solubility at PH 7.4 (μmol)” value is “B (B represents a value between 250 and 500)”. Besides, the “JAK 1 (pKi)” value on JAK1 was “B (B represents a pKi value between 9 and 10 (Ki between 1 nM and 0.1 nM))”.

As for `COC(=O)N1[C@@H]2CCC[C@H]1C[C@H](N(C)c1nc(Nc3cc(C)[nH]n3)cc(O[C@@H]3CCOC3)n1)C2` [Compound 23], the IC50 in data set [2] (read-out: Tall-1 IL2 pSTAT5 (pIC50) (converted)) was 10 to 31.6 nM. In the data set with Caco-2 cell monolayer, the “Cacoverap Kp 10^−6 cm/sec” value was “B (B represents a value between 20×10^−6 and 35×10^−6 cm/sec)”; the “Caco Kp 10^−6 cm/sec” value is given as “A (A represents a value above 30×10^−6 cm/sec)”. Besides, the Ki at JAK1 (read-out: JAK 1 (pKi) (converted)) was 0.1 to 1 nM.

`CCS(=O)(=O)N1[C@@H]2CCC[C@H]1C[C@H](N(C)c1nc(CO[C@@H]3CCOC3)c(F)c(Nc3cc(C)[nH]n3)n1)C2` [Compound 43, N2-((1R,3s,5S)-9-(ethylsulfonyl)-9-azabicyclo[3.3.1]nonan-3-yl)-5-fluoro-N2-methyl-N4-(5-methyl-1H-pyrazol-3-yl)-6-((((R)-tetrahydrofuran-3-yl)oxy)methyl)pyrimidine-2,4-diamine]: in data set [1], the “Solubility in PEG400 (mg/mL)” value is reported as “A (A represents a value above 10)”, the “Solubility in Diisopropyl adipate (mg/mL)” value was “A (A represents a value above 10)”, the “Solubility in MCT (mg/mL)” value was “C (C represents a value below 5)” and the “Solubility in Propylene glycol (mg/mL)” value is “A (A represents a value above 10)”. In data set [2], the “Tall-1 IL2 pSTAT5 (pIC50)” value is “A (A represents a pIC50 value ≥8.0)”. Besides, the “Caco Kp 10^−6 cm/sec” value with Caco-2 cell monolayer is “A (A represents a value above 30×10^−6 cm/sec)”. Also, the “Solubility at PH 7.4 (μmol)” value in the data set “Aqueous Solubility Assay” is “B (B represents a value between 250 and 500)”. The “JAK 1 (pKi)” value at JAK1 is “B (B represents a pKi value between 9 and 10 (Ki between 1 nM and 0.1 nM))”.
